Measurements taken from US7067248B2 (priority 2002, dated 2006).

Tests used:
VV [1] = format: cell-based, vaccinia virus
VV [2] = details: cited from earlier work
orthopoxvirus = details: cited from earlier work

## c1cnc2c(c1)ccc1cccnc12 [1,10-phenanthroline]
VV [1]
  Inhibition of VV replication (FIG. 12): potent inhibitors of VV replication
  VV replication: completely blocked

## pepstatin A
VV [1]
  VV replication: no effect

## α-amanitin
VV [2]
  Phenotype of VV replication: abortive-late phenotype

## CN1C(=O)/C(=N\NC(N)=S)c2ccccc21 [methisazone, N-methylisatin β-thiosemicarbazone]
orthopoxvirus
  Anti-orthopoxvirus activity: effective at inhibiting orthopoxvirus infections in cultured cells

## NC(=O)CI [iodoacetamide]
VV [1]
  Inhibition of VV replication (FIG. 12): potent inhibitors of VV replication
  VV replication: completely blocked

## Nc1ccn(C[C@@H](CO)OCP(=O)(O)O)c(=O)n1 [Cidofovir]
orthopoxvirus
  Anti-orthopoxvirus activity: potent anti-orthopoxvirus inhibitor

## c1cnc2c(c1)ccc1ncccc12 [1,7-phenanthroline]
VV [1]
  VV replication: no effect
